In data set [1] the test system is human HT29 rho zero cell line. In words: Growth of rho zero cells with alternative pyruvate or uridine sources, phase contrast microscopy (Example 5, Fig. 6). The format is cell-based. Particulars: day 9. How it is done:
Side effects of antibiotics can be ameliorated by administration of pyruvate and uridine. This observation can be further substantiated by applying alternative pyruvate or uridine sources, as for example alanine and uridine monophosphate (UMP). • Alternative pyruvate source: To challenge this hypothesis, cells devoid of mitochondrial DNA (rho zero cells) resembling cells that were treated with the antibiotics and have lost their mitochondrial encoded proteins, were cultured in the presence of uridine, alanine and uridine or pyruvate and uridine. […] Cells growth medium was supplemented with uridine (0.2 mM uridine) or alanine (1-10 mM alanine) and uridine (0.2 mM uridine) or pyruvate (1 mM sodium pyruvate) and uridine (0.2 mM uridine) (see figure 6a). […] Thus, pyruvate can be substituted by alternative pyruvate sources to ameliorate side effects of antibiotics. • Alternative uridine source: To challenge this hypothesis, cells devoid of mitochondrial DNA (rho zero cells) resembling cells that were treated with the antibiotics and have lost their mitochondrial encoded proteins, were cultured in the presence of UMP, alanine and UMP or pyruvate and UMP. […] Cells growth medium was supplemented with UMP (0.2 mM UMP) or alanine (1-10 mM alanine) and UMP (0.2 mM UMP) or pyruvate (1 mM sodium pyruvate) and UMP (0.2 mM UMP) (see figure 6b). […] Thus, UMP can be substituted by alternative pyrimidine source to ameliorate side effects of antibiotics.

The subject of data set [2] is GFP-colorized 143B.TK^- cells. Type of data set: cell-based. To be noted: human. An excerpt:
(§1) The panels display co-cultures grown on petri-dishes that contain a human dermal fibroblast (HDF) monolayer inoculated with GFP-colorized 143B.TK^- cells and dsRED-colorized 143B.TK^-CAP-res cells. The dsRED-colorized 143B.TK^-CAP-res cells contain a mitochondrial genotype that renders the cells chloramphenicol resistant.
(§2) To see whether or not the side-effect of these antibiotics reside within the mitochondria of the cell, a co-culture was established that was made of a primary fibroblast monolayer inoculated with 143B.TK^- and 143.TK^-CAP^res cells. The latter cell line is identical to the 143B.TK- cell line, except that these cells carry a CAP resistant mutation within the 16S rRNA gene located within the mitochondrial genome and are differently color coded.

Data set [3] deals with 143B.TK^- cells. Type of data set: cell-based, human. How it is done: Left panel: 143B.TK^- cells containing a green colorizing gene (GFP, green color) were seeded and grown to the original density in normal growth medium (left, 1). At day 1, medium was changed to allow cell growth under pyruvate and uridine free conditions; the medium was supplemented with chloramphenicol (or linezolid, or tigezycline; see example 1). […] At day 6 (image 3), the imaged colony starts to disperse and diminishes. At day 8 (image 4), cell number further declines and cells ceased to exist (day 10). Right panel: 143B.TK^- cells containing a green colorizing gene (GFP, green color) were seeded and grown to the original density in normal growth medium (right, 1). At day 1, medium was changed to allow cell growth under controlled pyruvate and uridine supply; the medium was supplemented with chloramphenicol (or linezolid, or tigezycline; see example 1).
In order to understand the side effects of antibiotics, we incubated cultured human cells with antibiotics that are known to impede cell's metabolism. The experiments were carried out with chloramphenicol, tigezycline or linezolid under otherwise identical conditions. […] Cells were treated with chloramphenicol (150 µg/ml culture medium, 450 µM; or linezolid, or tigezycline) and medium was exchanged on a daily basis. […] After additional 4 days, cells ceased to exist (see figure 1a).

Data set [4] relates to human dermal fibroblast (HDF) monolayer. Type of data set: cell-based.
From the text: (§3) The panels display co-cultures grown on petri-dishes that contain a human dermal fibroblast (HDF) monolayer inoculated with GFP-colorized 143B.TK- cells imaged by fluorescence microscopy and phase contrast microscopy. The HDF cells represent a resting post-mitotic tissue, while the GFP-colorized 143B.TK- cells mimic mitotic active cells. • Figure 1b, left panel: Without pyruvate and uridine, the side effect of chloramphenicol (or linezolid, or tigezycline) can be visualized on co-cultures similarly to the effect seen in figure 1. Approximately at day 4 of culture, the mitotic active colony enlarges and experiences growth retardation. […] The mitotic cells grow completely regularly. At day 8, the entire area is overgrown by the GFP-colorized 143B.TK^- cells.
as §1
(§4) To understand the influence of the antibiotic on cell cycles state, a co-culture was established that was based on a primary fibroblasts monolayer (mimicking cells at resting state) that was inoculated with 143B.TK^- cells (mimicking cells in mitotic state, dividing cells).
(§5) However, the fibroblast layer was completely unaffected and vital to start regrowth again (proven by executing scratches through the monolayer; "wound-healing" set in immediately). […] Both side-effects could be removed by co-administering uridine and/or pyruvate or derivatives thereof.

The next data set concerns B. subtilis DSM 347. In words: Paper pad agar diffusion test, non-growth zone (Examples 2 and 3). Type of data set: cell-based. To be noted: APT-plates as is or supplemented with uridine (50 µg/ml), sodium pyruvate (1 mM) or both; three concentrations; over night at 37°C. As for the experimental part:
(§6) Paper test pads (Rotiolabo, 6mm, Roth, Karlsruhe) were soaked with 7.5 µl of antibiotic-solution (concentrations used: 0.5 mM CAP; 0.77 mM CAP; 1.2 mM CAP; 0.15 mM LIN; 0.25 mM LIN; 0,4 mM LIN; 0.15 mM TIG; 0.25 mM TIG; 0.4 mM TIG) and placed on top of the agar plates (CAP- and LIN-solutions on APT/B. subtilis plates, TIG-solutions on LB/E. coli plates). Petri dishes were incubated over night at 37°C and analyzed by measuring the size of the non-growth zone of bacteria surrounding the antibiotics soaked paper pads (see figure 3a, and 3b).
(§7) Paper test pads (Rotiolabo, 6mm, Roth, Karlsruhe) were soaked with 7.5 µl of antibiotic-solution (concentrations used: 0.5 mM CAP; 0.77 mM CAP; 1.2 mM CAP; 0.15 mM LIN; 0.25 mM LIN, 0.4 mM LIN; 0.15 mM TIG, 0.25 mM TIG; 0.4 mM TIG; 0.5 mM CAP + 0.15 mM LIN; 0.77 mM CAP + 0.25 mM LIN; 1.2 mM CAP + 0.4 mM LIN; 0.5 mM CAP + 0.15 mM LIN + 0.15 mM TIG; 0.77 mM CAP + 0.25 mM LIN + 0.25 mM TIG; 1.2 mM CAP + 0.4 mM LIN + 0.4 mM TIG; 0.5 mM CAP + 0.15 mM TIG; 0.77 mM CAP + 0.25 mM TIG; 1.2 mM CAP + 0.4 mM TIG) and placed on top of the agar plates (CAP- and LIN-solutions on APT/B. subtilis plates, TIG-solutions on LB/E. coli plates). Petri dishes were incubated over night at 37°C and analyzed by measuring the size of the non-growth zone of bacteria surrounding the antibiotics soaked paper pads (see figure 2a, and 2b).
(In agar diffusion tests the substance spreads into inoculated agar from a disc or well.)

Another data set has as its system E. coli DH5α. Described as above. The format is cell-based. To be noted: LB plates as is or supplemented with uridine (50 µg/ml), sodium pyruvate (1 mM) or both; three concentrations; over night at 37°C. How it is done:
as §6, §7

Data set [5] relates to dsRED-colorized 143B.TK^-CAP-res cells. In words: Co-culture with chloramphenicol-sensitive and -resistant cells: resistant cells (Fig. 1d). The format is cell-based, human. Particulars: co-culture on HDF monolayer with 143B.TK^- cells, uridine and pyruvate not supplied.
From the text: as §1, §2

For data set [6], the system named is 143B.TK^- cells. In words: cells. The format is cell-based. Particulars: Homo sapiens, 240 h, chloramphenicol 50 nM - 300 µM, 10 days. How it is done:
The half maximal inhibitory concentration (IC50) is a measure of the effectiveness of a compound in inhibiting biological or biochemical function. This quantitative measure indicates, how much of a particular drug or compound is needed to inhibit a given biological process by half. In this case, the IC50 value was determined for the side-effect of the antibiotic on human cells in the presence or absence of pyruvate and/or uridine. IC50 values were determined utilizing resazurin (Cell-Quanti-Blue Cell Viability Assay Kit, Biotrend Chemikalien GmbH, Köln), a fluorescent dye indicating vital living or dead cells. For the experiment, 24-well culture dishes were seeded with a dilution of 143B.TK^- cells (10^3 cells each). The culture medium was composed of DMEM FG0445 (containing sodium pyruvate, high-glucose, glutamine; at the discretion of the supplier) supplemented with 5% FCS and 0.5 % uridine. After an initial growth of two days, cells were washed in PBS. From here, cells were grown in DMEM F0435 (containg high-glucose, without pyruvate, without glutamine; at the discretion of the supplier) supplemented with 2 % glutamine and 5% FCS. Depending on the subsequent experiments, cell growth medium was further supplemented with: • 1. w/o chloramphenicol, w/o pyruvate, w/o uridine • 2. w chloramphenicol (50 nM - 300 µM), w/o pyruvate, w/o uridine • 3. w chloramphenicol (50 nM - 300 µM), w/o pyruvate, w uridine (50 µg/ml) • 4. w chloramphenicol (50 nM - 300 µM), w pyruvate (100 µg/ml), w/o uridine • 5. w chloramphenicol (50 nM - 300 µM), w pyruvate (100 µg/ml), w uridine (50 µg/ml)
Growth medium was changed every 12 hours. The experiment was carried out for 10 days.
Measures of sets 2-5 were normalized by measure 1. Thus, when cell vitality under chloramphenicol treatment is similar to normal cell growth (measure 1), the ratio of (measure 2, 3, 4, 5) /(measure 1) expressed in % should stay close to 1. […] When pyruvate or pyruvate + uridine were added to the growth medium, IC50 of CAP was out of range (> 300 µM).

In data set [7] the test system is GFP-colorized 143B.TK- cells. Type of data set: cell-based. To be noted: human, 13 days, 150 µg/ml.
From the text: as §3, §4, §5

The mark [8] stands for this setting: 0.2 mM uridine source alone, without any pyruvate source.

The text below walks through data of patent EP3027213B1, “COMPOSITIONS FOR AMELIORATING AND/OR PREVENTING ADVERSE SIDE EFFECTS IN ANTIBIOTIC THERAPY” (priority 2013, dated 2015).

Entries after “also recorded” stand apart in the source; their conditions may differ. Where two headings read alike, the source gives them in different places.

`O=c1ccn([C@@H]2O[C@H](COP(=O)(O)O)[C@@H](O)[C@H]2O)c(=O)[nH]1` [UMP, uridine monophosphate]: the cell growth result in data set [1] (setting [8]) was “did not exhibit cell growth; also recorded: cell growth stalls and comes to an halt”.

For the compound `C[C@H](N)C(=O)O` [alanine], the cell growth result in data set [1] (on UMP supplemented media (0.2 mM UMP), alanine 1-10 mM or sodium pyruvate 1 mM) was “displayed regular cell growth; also recorded: cells prosper and grow almost in the same range as normal cells”; in [1] (on uridine supplemented media (0.2 mM uridine), alanine 1-10 mM or sodium pyruvate 1 mM), “displayed regular cell growth; also recorded: cells prosper and grow almost in the same range as normal cells”.

One may read the IC50 as the concentration that gives 50% inhibition. `O=C(N[C@H](CO)[C@H](O)c1ccc([N+](=O)[O-])cc1)C(Cl)Cl` [chloramphenicol]: the cell growth entry in data set [2] was “cells stopped growth after 4-5 days and ceased to exist after additional 6 days”; with 143B.TK^- cells [3], “growth behavior of the cells was not altered by the antibiotic”; in the data set with 143B.TK^- cells [3] (human, 150 µg/ml), “cell growth retarded and came to a halt after 6 days”; in data set [5], “exhibited no limitation in cell growth; also recorded: not influenced by the side-effect of chloramphenicol and grew regularly”; in [5] (listed as CAP) it was “not influenced by CAP”. Besides, the “cell vitality of the HDF monolayer” value in data set [4] is reported as “no change in cell vitality”. Moreover, the “Antibiotic effect (size of the non-growth zone)” value was “not rendered by the co-administered compounds uridine and/or pyruvate; also recorded: independent of pyruvate, uridine or pyruvate + uridine supplementation” in the data set on B. subtilis DSM 347 and “independent of pyruvate, uridine or pyruvate + uridine supplementation” with E. coli DH5α. The 50% inhibitory concentration (IC50) with 143B.TK^- cells [6] (w pyruvate (100 µg/ml), w uridine (50 µg/ml)) is greater than 300 µM; with 143B.TK^- cells [6] (w pyruvate (100 µg/ml), w/o uridine), greater than 300 µM; in the data set on 143B.TK^- cells [6] (w/o pyruvate, w uridine (50 µg/ml)), 7.5 µM; in the data set on 143B.TK^- cells [6] (w/o pyruvate, w/o uridine), 3.2 µM. The “growth of the mitotic active colony” value in data set [7] is listed as “finally ceases to exist at day 13”.

Take `CC(=O)NC[C@H]1CN(c2ccc(N3CCOCC3)c(F)c2)C(=O)O1` [linezolid]: the cell growth entry in the data set on 143B.TK^- cells [3] was “growth behavior of the cells was not altered by the antibiotic”; in the data set on 143B.TK^- cells [3] (human, 150 µg/ml), “cell growth retarded and came to a halt after 6 days”. Further, the “cell vitality of the HDF monolayer” value in data set [4] is given as “no change in cell vitality”. The “Antibiotic effect (size of the non-growth zone)” value in the data set on B. subtilis DSM 347 was “not rendered by the co-administered compounds uridine and/or pyruvate; also recorded: independent of pyruvate, uridine or pyruvate + uridine supplementation”. For the same compound, the “growth of the mitotic active colony” value in data set [7] is listed as “finally ceases to exist at day 13”.

With `CN(C)c1cc(NC(=O)CNC(C)(C)C)c(O)c2c1C[C@H]1C[C@H]3[C@H](N(C)C)C(O)=C(C(N)=O)C(=O)[C@@]3(O)C(O)=C1C2=O` [tigezycline], the cell growth result in the data set on 143B.TK^- cells [3] was “growth behavior of the cells was not altered by the antibiotic”; in the data set on 143B.TK^- cells [3] (human, 150 µg/ml) it was “cell growth retarded and came to a halt after 6 days”. Besides, the “cell vitality of the HDF monolayer” value in data set [4] is on record as “no change in cell vitality”. In the data set with E. coli DH5α, the “Antibiotic effect (size of the non-growth zone)” value is listed as “not rendered by the co-administered compounds uridine and/or pyruvate; also recorded: independent of pyruvate, uridine or pyruvate + uridine supplementation”. For the same compound, in data set [7], the “growth of the mitotic active colony” value was “finally ceases to exist at day 13”.

Regarding `O=c1ccn([C@@H]2O[C@H](CO)[C@@H](O)[C@H]2O)c(=O)[nH]1` [uridine], the cell growth entry in [1] (setting [8]) is “did not exhibit cell growth; also recorded: cell growth stalls and comes to an halt”.
